Assay [1] has as its system NCI-H226 cells. The assay can be described thus: Proliferation and cell viability, CellTiter-Glo 2.0 (CTG) assay. To be noted: 144 hrs. The assay is classed as cell-based. The procedure:
(§1) Cell proliferation of a TEAD dependent NF2-null mesothelioma cell line, NCI-H226, and a TEAD-non-dependent mesothelioma cell line, NCI-H28 was assayed using two different protocols: • a) CellTiter-Glo 2.0 (Promega #G9243). The effect of the TEAD inhibitors disclosed herein on cell proliferation was determined in TEAD1-genetically dependent cell line NCI-H226 (responder cell line) and TEAD-independent cell lines (NCI-H23, HEK293T), as non-responder, negative control. Cells were seeded in 96-well plates (Thermo Scientific #167008) in growth media (RPMI-1640, Gibco #61870-010) for NCI-H226 and NCI-H23 or DMEM (Gibco #31966-021, HEK293T) with 10% Heat Inactivated Fetal Bovine Serum (Gibco 10500-064) at 800 (NCI-H226 and HEK-293T) or 2000 (NCI-H23) cells per well at 37° C., 5% CO2, humidified incubator; 24 hours later, fresh growth media containing test compound or DMSO vehicle was added and incubated with the cells for 144 hrs. TEAD inhibitor stocks were made at a 1000× fold excess in DMSO, and a dose response test compound dose range of 10,000 to 0.1 nM was used. Each treatment was carried out in triplicate. After 144 hrs of treatment, relative cell viability numbers were determined using the CellTiter-Glo 2.0 assay following the manufacturer's instructions. Test plates and CellTiter-Glo 2.0 reagent were allowed to equilibrate to room temperature. CellTiter-Glo 2.0 reagent was added at 1:1 reagent to media ratio to the 96-well cell plates, plates were placed on a plate shaker for 2 minutes and then incubated at room temperature for a further 10 minutes to allow complete cell lysis to occur. The mix was then transferred to white, 96-well luminometer assay plates (Greiner Bio One #655075). Luminescence was quantified using a CLARIOStar Plus multi-mode plate reader (BMG Labtech) in luminescence detection mode with the recommended settings (ultra-Glo pre-set: emission 545-50 nm with autofocus and enhanced dynamic range on). Relative cell density was expressed as a function of inhibitor concentration, with respect to DMSO-only control wells. Data where plotted using GraphPad Prism and IC50 values for the biological effect were calculated using the EC50 non-linear fit function using a sigmoidal, 4-parameter logistic, least squares fit with no constraints. • b) Cell Titer One (Promega, #G3582). The effect of the TEAD inhibitors disclosed herein on cell proliferation was also determined using the Promega Substrate Cell Titer Aqueous One Solution Reagent. The TEAD inhibitors were evaluated for the effects on cell proliferation responder (H226) and non-responder negative control cancer cell lines (CAMA1, H28), as well as non-transformed normal human cells (HUVEC, NHDF). Dissociated cells were resuspend in media (depending on cell line, either in DMEM, RPMI, or EMEM all with 10% FBS, with gentamicin as an antibiotic). Cells were seeded at 100 μL/well at 750 cells per well in 96-well plates and allowed to settle and attach. After an incubation of 24 hrs (37° C., 5% CO2, humidified incubator), 100 μL of test compound-containing media was added. A dilution series of 2000× concentrated stock of test compounds was prepared in DMSO, for final concentrations from 0.1 to 10,000 nM. After addition of test compound-containing media, cells were incubated for 6 days at 37° C., 5% CO2, humidified incubators). To measure cell density, 20 μL of Promega Substrate Cell Titer 96 Aqueous One Solution Reagent (Promega, #G3582) to each well was added according to the manufacturer's instructions. Plates were incubated at 37° C. for usually 3-8 hrs, to reach in the control cells (without compound) an OD of 1.5 at 490 nm. The OD was measured using Vmax [Molecular Devices] spectrophotometer plate reader. Media only-wells were used as background controls and cell densities normalized to DMSO vehicle control. ECs were taken as the concentration achieving 50% of maximal growth inhibition.

The next assay concerns NCI-H23 cells. The assay is described as above. The settings on record: 144 hrs. The assay is classed as cell-based. The procedure: as §1
Assay [2] concerns NCI-H226 cells. The assay can be described thus: Proliferation, Cell Titer One assay. Type of assay: cell-based. To be noted: 6 days. The procedure:
as §1

The target of a further assay is TEAD4 (Homo sapiens, UniProt Q15561). The assay can be described thus: TEAD thermal shift assay (TSA). Type of assay: binding. The source says: (§2) Thermal shift assay (TSA) is a biophysical method to evaluate stability of proteins with change in temperature. The assay measures thermal denaturation temperature in varying conditions such as different drug concentration. For this example, fluorogenic dye was used that bind to unfolded proteins. SYPRO Orange binds non-specifically to hydrophobic surfaces, and water strongly quenches its fluorescence. When the protein unfolds, the exposed hydrophobic surfaces bind the dye, resulting in an increase in fluorescence by excluding water. Detergent micelles also bind the dye and increase background noise dramatically. Binding of small molecules to proteins leads to a stabilization against to thermal denaturation with the degree of thermal stabilization proportional to the strength of binding.
(§3) The study described in this example investigated the change in melting temperature (ΔTm) of TEAD isoforms 1˜4 when treated with TEAD inhibitors. Compound 1-1-a known strong TEAD1 and weak TEAD2 inhibitor; as well as Compound 1-4-a pan-TEAD inhibitor were used as controls.
(§4) Tris-HCL was dissolved in 5 mL of Cell culture grade water and allowed to dissolve completely. The pH was adjusted to 8 using NaOH. Additional assay buffer components were added in the order listed above. The buffer was mixed slowly.
(§5) Assay buffer was prepared according to the procedures outlined above and dispensed into test wells. Spyro orange was added to a concentration of 5× in the assay buffer, followed by test compound stock solution which was added to a concentration of 10 μM or 30 μM in the assay buffer.
(§6) The melt cycle was performed in Bio-RAD PCR instrument from 20-95° C. with ramp rate of 1° C./min.

A further assay has as its target TEAD1 (Homo sapiens, UniProt P28347). Put plainly: TEAD thermal shift assay (TSA). Type of assay: binding.
Excerpt: as §2, §3, §4, §5, §6

For the next assay, the target named is TEAD2 (Homo sapiens, UniProt Q15562). Put plainly: TEAD thermal shift assay (TSA). The assay is classed as binding.
Excerpt: as §2, §3, §4, §5, §6

In a further assay the target is TEAD3 (Homo sapiens, UniProt Q99594). The assay can be described thus: TEAD thermal shift assay (TSA). Type of assay: binding.
Excerpt: as §2, §3, §4, §5, §6

Where [3] appears, read: Homo sapiens, NCI-H226, 144 h, H226-responder cell line.
The mark [4] stands for this setting: Homo sapiens, NCI-H23, H23-non-responder cell line.
Setting [5] is: ratio of protein to compound 1:1.
Setting [6] is: ratio of protein to compound 1:3.

Where only a bound is given, the exact number is not on record here.

One may read the IC50 as the midpoint of a concentration-inhibition curve. Lower therefore signals greater potency.

TEAD1, sequence (P28347 whole entry): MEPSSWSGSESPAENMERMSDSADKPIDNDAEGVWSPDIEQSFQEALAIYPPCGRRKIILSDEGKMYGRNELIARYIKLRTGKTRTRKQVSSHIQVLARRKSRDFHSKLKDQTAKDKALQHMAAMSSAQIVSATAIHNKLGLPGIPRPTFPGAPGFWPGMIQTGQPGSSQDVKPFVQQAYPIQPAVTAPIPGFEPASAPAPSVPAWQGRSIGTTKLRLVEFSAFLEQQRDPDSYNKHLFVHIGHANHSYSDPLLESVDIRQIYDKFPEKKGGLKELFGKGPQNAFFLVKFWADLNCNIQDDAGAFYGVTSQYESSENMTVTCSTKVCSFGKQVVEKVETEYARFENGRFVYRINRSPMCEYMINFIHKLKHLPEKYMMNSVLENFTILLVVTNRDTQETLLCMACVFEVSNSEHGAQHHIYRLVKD
TEAD2, sequence (Q15562 whole entry): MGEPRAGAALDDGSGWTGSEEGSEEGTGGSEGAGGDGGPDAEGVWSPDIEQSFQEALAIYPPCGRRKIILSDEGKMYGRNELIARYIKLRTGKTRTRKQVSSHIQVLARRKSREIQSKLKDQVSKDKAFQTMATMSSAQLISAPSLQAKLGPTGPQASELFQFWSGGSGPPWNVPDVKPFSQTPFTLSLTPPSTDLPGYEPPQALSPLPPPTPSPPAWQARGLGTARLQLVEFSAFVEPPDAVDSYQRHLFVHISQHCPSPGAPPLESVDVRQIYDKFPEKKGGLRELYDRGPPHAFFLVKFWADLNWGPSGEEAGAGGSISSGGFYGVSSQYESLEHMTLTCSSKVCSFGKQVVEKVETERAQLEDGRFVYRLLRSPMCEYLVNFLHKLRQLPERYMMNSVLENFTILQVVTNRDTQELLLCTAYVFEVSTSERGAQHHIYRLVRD
TEAD4, sequence (Q15561 whole entry): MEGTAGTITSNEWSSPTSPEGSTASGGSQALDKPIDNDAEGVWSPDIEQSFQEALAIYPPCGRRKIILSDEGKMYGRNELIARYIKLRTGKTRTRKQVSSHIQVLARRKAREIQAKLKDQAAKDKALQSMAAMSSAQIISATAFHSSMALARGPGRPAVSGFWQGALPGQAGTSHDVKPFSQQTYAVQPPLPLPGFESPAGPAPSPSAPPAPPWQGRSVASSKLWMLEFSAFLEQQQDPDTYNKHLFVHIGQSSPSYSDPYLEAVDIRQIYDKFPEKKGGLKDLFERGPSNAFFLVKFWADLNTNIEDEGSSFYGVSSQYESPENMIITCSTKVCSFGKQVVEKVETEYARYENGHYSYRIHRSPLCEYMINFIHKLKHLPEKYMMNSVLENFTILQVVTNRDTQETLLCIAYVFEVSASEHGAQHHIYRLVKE
TEAD3, sequence (Q99594 whole entry): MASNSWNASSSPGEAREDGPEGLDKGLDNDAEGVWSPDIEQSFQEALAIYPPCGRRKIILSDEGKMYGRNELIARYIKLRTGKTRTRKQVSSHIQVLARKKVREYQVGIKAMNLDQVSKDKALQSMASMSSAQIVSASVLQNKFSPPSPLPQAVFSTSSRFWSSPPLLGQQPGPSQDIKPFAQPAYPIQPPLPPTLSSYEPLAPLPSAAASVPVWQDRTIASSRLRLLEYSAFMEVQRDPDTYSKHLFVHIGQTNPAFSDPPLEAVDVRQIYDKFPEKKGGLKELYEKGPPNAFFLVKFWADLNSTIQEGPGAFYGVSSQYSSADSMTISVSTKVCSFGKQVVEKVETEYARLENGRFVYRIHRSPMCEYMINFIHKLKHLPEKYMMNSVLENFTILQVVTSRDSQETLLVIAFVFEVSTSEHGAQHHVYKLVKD

On to `O=C(NCc1ncco1)c1cnc2c(C3=CCC(C(F)(F)F)CC3)cccc2c1` (single isomer, unassigned) [Compound 12, N-(oxazol-2-ylmethyl)-8-(4-(trifluoromethyl)cyclohex-1-en-1-yl)quinoline-3-carboxamide], for which the IC50 was below 200 nM in the assay with NCI-H226 cells [1] (setting [3]); above 1000 nM with NCI-H23 cells (setting [4]); 200 to 1000 nM in the assay on NCI-H226 cells [2] (Homo sapiens, NCI-H226, 144 h).
As for `O=C(NCc1ncco1)c1cnc2c(C3=CCC(C(F)(F)F)CC3)cccc2c1` (single isomer, unassigned) [Compound 13, N-(oxazol-2-ylmethyl)-8-(4-(trifluoromethyl)cyclohex-1-en-1-yl)quinoline-3-carboxamide], the concentration for half-maximal inhibition (IC50) in the assay on NCI-H226 cells [1] (H226-responder cell line) is below 200 nM; with NCI-H23 cells (H23-non-responder cell line), above 1000 nM; with NCI-H226 cells [2], below 200 nM.
Turning to `C[C@H](NC(=O)c1ccc2c(-c3ccc(C(F)(F)F)cc3)cccc2c1)c1cccc(N)n1` [Compound 1-4, reference compound], the “TEAD4 ΔTm” value turned out to be 5 °C on TEAD4 (setting [5]) and 9 °C on TEAD4 (setting [6]). Besides, the “TEAD1 ΔTm” value at TEAD1 (setting [5]) is 10 °C; on TEAD1 (setting [6]), 12 °C. Further, the “thermal shift / binding across TEAD isoforms, in words” value at TEAD1 (summary of Table 14 over TEAD1-4) is on record as “thermal shifts for all four TEAD isoforms”. Besides, the “TEAD2 ΔTm” value was found to be 5 °C at TEAD2 (setting [5]) and 7 °C on TEAD2 (setting [6]). The figures for the “TEAD3 ΔTm” value at TEAD3 (setting [5]) and at TEAD3 (setting [6]) were 5 °C and 9 °C, respectively.
With `O=C(NCc1ccccn1)c1cnc2c(C3=CCC(C(F)(F)F)CC3)cccc2c1` (stereo not shown) [Compound 5, N-(pyridin-2-ylmethyl)-8-(4-(trifluoromethyl)cyclohex-1-en-1-yl)quinoline-3-carboxamide], the half-inhibitory concentration (IC50) in the assay on NCI-H226 cells [1] (setting [3]) is below 200 nM; in the assay with NCI-H23 cells (setting [4]) it was above 1000 nM; in the assay on NCI-H226 cells [2] (Homo sapiens, NCI-H226, 144 h), below 200 nM.
For the compound `CC(C)NC(=O)c1cnc2c(C3=CCC(F)(F)CC3)cccc2c1` [Compound 26, 8-(4,4-difluorocyclohex-1-en-1-yl)-N-isopropylquinoline-3-carboxamide], the IC50 with NCI-H226 cells [1] (Homo sapiens, NCI-H226, H226-responder cell line) was below 200 nM; in the assay with NCI-H226 cells [2] (Homo sapiens, NCI-H226, 144 h), below 200 nM.
As for `C[C@H](NC(=O)c1cnc2c(C3=CCC(F)(F)CC3)cccc2c1)c1ccccn1` [Compound 27, (S)-8-(4,4-difluorocyclohex-1-en-1-yl)-N-(1-(pyridin-2-yl)ethyl)quinoline-3-carboxamide], the concentration for half-maximal inhibition (IC50) was below 200 nM with NCI-H226 cells [1] (setting [3]) and below 200 nM in the assay with NCI-H226 cells [2] (Homo sapiens, NCI-H226, 144 h).
In the case of `O=C(NCc1ncco1)c1cnc2c(C3=CCC(F)(F)CC3)cccc2c1` [Compound 29, 8-(4,4-difluorocyclohex-1-en-1-yl)-N-(oxazol-2-ylmethyl)quinoline-3-carboxamide], the 50% inhibitory concentration (IC50) in the assay with NCI-H226 cells [1] (setting [3]) was 200 to 1000 nM; with NCI-H226 cells [2] (Homo sapiens, NCI-H226, 144 h), above 1000 nM.
Turning to `CC(C)NC(=O)c1cnc2c(C3=CCC(C)(C)CC3)cccc2c1` [Compound 30, 8-(4,4-dimethylcyclohex-1-en-1-yl)-N-isopropylquinoline-3-carboxamide], the half-maximal inhibitory concentration (IC50) in the assay on NCI-H226 cells [1] (setting [3]) is below 200 nM; in the assay on NCI-H226 cells [2] (Homo sapiens, NCI-H226, 144 h) it was below 200 nM.
In the case of `C[C@H](NC(=O)c1cnc2c(C3=CCC(C)(C)CC3)cccc2c1)c1ccccn1` [Compound 31, (S)-8-(4,4-dimethylcyclohex-1-en-1-yl)-N-(1-(pyridin-2-yl)ethyl)quinoline-3-carboxamide], the IC50 in the assay on NCI-H226 cells [1] (setting [3]) was below 200 nM; in the assay on NCI-H226 cells [2] (Homo sapiens, NCI-H226, 144 h), above 1000 nM.
As to `C[C@H](NC(=O)c1cnc2c(C3=CCCCC3)cccc2c1)c1ccccn1` [Compound 35, (S)-8-(cyclohex-1-en-1-yl)-N-(1-(pyridin-2-yl)ethyl)quinoline-3-carboxamide], the 50% inhibitory concentration (IC50) in the assay with NCI-H226 cells [2] (Homo sapiens, NCI-H226, 144 h) lay within 200 to 1000 nM.
The same measure, in the same setting: under `C[C@@H](CO)NC(=O)c1cnc2c(C3=CCCCC3)cccc2c1` [Compound 36, (S)-8-(cyclohex-1-en-1-yl)-N-(1-hydroxypropan-2-yl)quinoline-3-carboxamide] stands above 1000 nM; under `O=C(NCc1ncco1)c1cnc2c(C3=CCCCC3)cccc2c1` [Compound 37, 8-(cyclohex-1-en-1-yl)-N-(oxazol-2-ylmethyl)quinoline-3-carboxamide], above 1000 nM.
Consider `CNC(=O)c1cnc2c(C3=CCC(C(F)(F)F)CC3)cccc2c1` (stereo not shown) [Compound 38, N-methyl-8-(4-(trifluoromethyl)cyclohex-1-en-1-yl)quinoline-3-carboxamide], for which the IC50 in the assay on NCI-H226 cells [1] (setting [3]) is below 200 nM; in the assay on NCI-H226 cells [2] (Homo sapiens, NCI-H226, 144 h), 200 to 1000 nM.
Regarding `O=C(NCCO)c1cnc2c(C3=CCC(C(F)(F)F)CC3)cccc2c1` (stereo not shown) [Compound 39, N-(2-hydroxyethyl)-8-(4-(trifluoromethyl)cyclohex-1-en-1-yl)quinoline-3-carboxamide], the concentration for half-maximal inhibition (IC50) is below 200 nM in the assay with NCI-H226 cells [1] (setting [3]) and below 200 nM in the assay on NCI-H226 cells [2] (Homo sapiens, NCI-H226, 144 h).
With `COCCNC(=O)c1cnc2c(C3=CCC(C(F)(F)F)CC3)cccc2c1` (stereo not shown) [Compound 40, N-(2-methoxyethyl)-8-(4-(trifluoromethyl)cyclohex-1-en-1-yl)quinoline-3-carboxamide], the half-inhibitory concentration (IC50) is below 200 nM in the assay with NCI-H226 cells [1] (setting [3]) and 200 to 1000 nM in the assay on NCI-H226 cells [2] (Homo sapiens, NCI-H226, 144 h).

(Values after patent publication US20250223306A1, “TEAD INHIBITORS AND METHODS OF USE” (Sporos BioDiscovery, Inc., priority 2022, published 2025).)
